The values that follow come from the NIST ThermoML archive (doi:10.1016/j.jct.2018.12.002).

This data set can be described thus: molar heat capacity at constant pressure. Particulars: 1943 K; 101.33 kPa; Liquid; Levitation methods.

Numbers after ± are expanded uncertainties.

As to `[Ti]` [titanium], the “molar heat capacity at constant pressure” value is recorded as 44.9 ± 4.3 J/K/mol.
